Experimental data from PubChem BioAssay (NCI).
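1) Cells in 96-well plates. 2) Compound, 48 h, 5 concentrations. 3) Linear interpolation between surrounding doses. 4) Unreached endpoint = highest concentration. Here, GI50 denotes the concentration required for 50% inhibition of growth. TGI: concentration producing complete growth inhibition.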

Experiments:
Experiment in all cases: NCI-60 cell line screen, 48 h
786-0 renal = tested on: 786-0 renal
A549 NSCLC = tested on: A549 NSCLC
COLO 205 colon = tested on: COLO 205 colon
HCT-15 colon = tested on: HCT-15 colon
K-562 leukemia = tested on: K-562 leukemia
KM12 colon = tested on: KM12 colon
MOLT-4 leukemia = tested on: MOLT-4 leukemia
RXF 393 renal = tested on: RXF 393 renal
SK-MEL-5 melanoma = tested on: SK-MEL-5 melanoma
SW-620 colon = tested on: SW-620 colon

Compound	GI50 (786-0 renal) [µM]	TGI (786-0 renal) [µM]	GI50 (A549 NSCLC) [µM]	TGI (A549 NSCLC) [µM]	GI50 (COLO 205 colon) [µM]	TGI (COLO 205 colon) [µM]	GI50 (HCT-15 colon) [µM]	TGI (HCT-15 colon) [µM]	GI50 (K-562 leukemia) [µM]	TGI (K-562 leukemia) [µM]	GI50 (KM12 colon) [µM]	TGI (KM12 colon) [µM]	GI50 (MOLT-4 leukemia) [µM]	TGI (MOLT-4 leukemia) [µM]	GI50 (RXF 393 renal) [µM]	TGI (RXF 393 renal) [µM]	GI50 (SK-MEL-5 melanoma) [µM]	TGI (SK-MEL-5 melanoma) [µM]	GI50 (SW-620 colon) [µM]	TGI (SW-620 colon) [µM]
C=C1C(=O)O[C@H]2[C@H]1CC/C(COC(=O)c1ccc(C(=O)O)s1)=C\CC[C@@]1(C)O[C@@H]21	1.54	3.09	5.35	18.4	2.01	3.92	1.65	4.72	1.47	> 100	2.82	8.46	2.38	7.2	1.97	3.92	3.64	13.3	1.61	3.79
O=C1c2cccc3cc([N+](=O)[O-])cc(c23)C(=O)N1CCCN1CCN(CCCN2C(=O)c3cccc4cc([N+](=O)[O-])cc(c34)C2=O)CC1		5.55		> 100		2.67		> 100		> 100				> 100		1.76		2.37		> 100
COc1ccc(/C=[N+](\[O-])[C@H](COCc2ccccc2)c2ccccc2)cc1		> 100				> 100				> 100		> 100		> 100		> 100				> 100
O=C1NC(=O)C(c2ccccc2Cl)=C1Nc1cccc(O)c1	13.8	> 25	11.2	> 25	7.17	> 21.6	2.47	> 25	1.32	> 25	2.51	> 25	> 25	> 25	1.92	> 21.1	1.67	> 25	1.47	> 25
Cc1ccc(C)c(NC(=O)/C(=N\NC(N)=S)C(C#N)c2ccccc2)c1 (stereo not drawn)		> 100		> 100		> 100		> 100		> 100		> 100		> 100				> 100		> 100
CC/C=C\C[C@H](O)C/C=C1/C(=O)C=C[C@@H]1C/C=C\CCCC(N)=O	1.94	3.62	2.49	6.01	2.11	4.72	1.74	5.69			1.68	4.21			1.94	3.69	1.56	2.97	1.58	5.33
CC(=O)O/C(C)=C\C(=O)O/N=C(\N)c1ccc(C)cc1		> 100		> 100		> 100				52.1		> 100		> 100		99.3		58.5		> 100
CCCN(CCC)c1c([N+](=O)[O-])cc(S(N)(=O)=O)cc1[N+](=O)[O-]		30.4		32.8		43.1		32.2		35.7		34.3		45.4				33.5		36
Cn1cc(NC(=O)c2cc(NC(=O)CCCCCC(=O)Nc3cc(C(=O)Nc4cc(C(=O)NCCC(=N)N)n(C)c4)n(C)c3)cn2C)cc1C(=O)NCCC(=N)N		> 100		> 100		> 100		> 100		> 100		> 100				> 100		> 100		> 100
